Consider 15 compounds from PubChem BioAssay (NCI).

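Dose response: 5 concentrations. Exposure: 48 h. Format: 96-well plates. Endpoint: linear interpolation; highest concentration if not reached. At the GI50, growth is halved. At the TGI there is no net growth.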

Test systems include DU-145 prostate; HS 578T breast; MDA-MB-231 breast; MCF7 breast.
Holding throughout (experiment): NCI-60 cell line screen, 48 h

For the compound `CCCC(C)c1cc(Cc2cc(Cl)cc(Cl)c2O)c(O)c(Cc2cc(Cl)cc(Cl)c2O)c1` (centres undefined), the GI50 is 3.89 µM with DU-145 prostate, 0.836 µM with HS 578T breast, 1.24 µM in the assay with MDA-MB-231 breast and 0.798 µM in the assay on MCF7 breast. The TGI in the assay on DU-145 prostate is 15.5 µM; in the assay on HS 578T breast it was 8.32 µM; in the assay on MDA-MB-231 breast, 4.19 µM; with MCF7 breast, 10.2 µM.

Take `COc1ccc(/C=C2\CCCC3=C2N=C2SC(C)=NN2C3c2ccc(OC)c(OC)c2)cc1OC` (centres undefined): the GI50 was 10.7 µM in the assay on DU-145 prostate, 30.4 µM in the assay with HS 578T breast, 25.1 µM in the assay with MDA-MB-231 breast and 3.04 µM in the assay on MCF7 breast. The TGI in the assay on DU-145 prostate, in the assay with HS 578T breast, in the assay on MDA-MB-231 breast and in the assay on MCF7 breast was greater than 100 µM throughout.

As for `COc1ccc(-c2nn3c(-c4cc(F)c(Cl)cc4Cl)nnc3s2)cc1`, the GI50 in the assay with DU-145 prostate is 29.1 µM; in the assay on HS 578T breast, 43.3 µM; in the assay on MDA-MB-231 breast, 27.7 µM; in the assay on MCF7 breast it was 11.4 µM. The TGI in the assay on DU-145 prostate was 83 µM; with HS 578T breast it was greater than 100 µM; with MDA-MB-231 breast it was greater than 100 µM; with MCF7 breast it was greater than 100 µM.

Take `O=C(NCCO)Nc1ccc(-c2nc(N3CCOCC3)c3cccn3n2)cc1`: the GI50 is 0.232 µM in the assay on DU-145 prostate, 0.0889 µM in the assay on HS 578T breast, 0.172 µM in the assay on MDA-MB-231 breast and 0.0703 µM in the assay with MCF7 breast. For the same compound, the TGI is greater than 58.5 µM with DU-145 prostate, 0.836 µM in the assay on HS 578T breast, 14.6 µM in the assay on MDA-MB-231 breast and greater than 100 µM with MCF7 breast.

As for `O=C(/C=C/c1ccccc1)c1cc(Br)ccc1O`, the TGI with DU-145 prostate turned out to be 28.4 µM; in the assay on HS 578T breast, 59.3 µM; with MDA-MB-231 breast, 42.5 µM; in the assay with MCF7 breast, 31.5 µM.

Regarding `CN(C)CCNc1c2c(c(NCCN(C)C)c3[nH]ccc13)C(=O)c1ccccc1C2=O`, the results for the GI50 in the assay with DU-145 prostate, with HS 578T breast and in the assay on MCF7 breast were 0.587 µM, 2.74 µM and 0.371 µM, respectively. For the same compound, the results for the TGI in the assay with DU-145 prostate and in the assay on HS 578T breast were 3.1 µM and 9.26 µM, respectively.

As to `COc1ccc(-c2nc3sc4c(c3c(=O)[nH]2)CCCCCC4)cc1`, the GI50 is greater than 33.2 µM in the assay on DU-145 prostate, 1.78 µM in the assay on HS 578T breast and 4.04 µM in the assay with MDA-MB-231 breast. In addition, the TGI in the assay with DU-145 prostate, in the assay with HS 578T breast and in the assay with MDA-MB-231 breast was greater than 33.2 µM in each case.

As to `COc1ccc(-c2n/c(=C\c3c(O)[nH]c4ccc(OC)cc34)cc3c2=Nc2ccccc2-3)cc1`, in the assay with HS 578T breast, the GI50 is 1.94 µM and the TGI worked out at 4.82 µM. In addition, in the assay with MDA-MB-231 breast, the GI50 was 1.73 µM and the TGI came out at 4.27 µM.

Turning to `O=C1/C(=C\c2c[nH]c3ccccc23)c2ccccc2N1c1c(Cl)cccc1Cl`, the GI50 in the assay on DU-145 prostate is 1.74 µM; in the assay with MDA-MB-231 breast it was 1.59 µM; with MCF7 breast, 1.74 µM. Besides, the values for the TGI with DU-145 prostate, in the assay with MDA-MB-231 breast and in the assay on MCF7 breast were 3.28 µM, 3.21 µM and 3.76 µM, respectively.

Regarding `CCCCCCCCN=C(N)c1ccc(N2CCN(c3ccc(C(N)=NCCCCCCCC)cc3)CC2)cc1`, in the assay with DU-145 prostate, the GI50 is 2.42 µM and the TGI amounted to 18 µM. In addition, in the assay on MDA-MB-231 breast, the GI50 is 3.37 µM and the TGI was greater than 50 µM.

`CCCCC(CC)CN=C(N)NC(N)=NCCCCCCN=C(N)NC(N)=NCC(CC)CCCC` (centres undefined): in the assay with DU-145 prostate, the GI50 is 3.26 µM and the TGI came to 11.4 µM. Also, in the assay with MDA-MB-231 breast, the GI50 is 1.85 µM and the TGI came to 3.65 µM.

Turning to `COc1ccc(-c2ccc(/C=N/n3c(COc4ccc(Cl)cc4Cl)nn(CN4CCOCC4)c3=S)o2)c([N+](=O)[O-])c1`, in the assay on DU-145 prostate, the GI50 is greater than 100 µM and the TGI is greater than 100 µM. For the same compound, in the assay with MCF7 breast, the GI50 is 20.7 µM and the TGI turned out to be 77.3 µM.

As to `O=C(O)/C=C\C(=O)N1C/C(=C\c2ccccc2Cl)C(=O)/C(=C/c2ccccc2Cl)C1`, the GI50 with DU-145 prostate is 2.43 µM; in the assay with MDA-MB-231 breast, 3.52 µM; in the assay with MCF7 breast, 1.09 µM. For the same compound, the TGI with DU-145 prostate was 5.48 µM; in the assay with MDA-MB-231 breast it was 11.5 µM; in the assay with MCF7 breast, 10.4 µM.

With `CC(CCC(=O)O)[C@H]1CCC2[C@@H]3CC[C@@H]4CC(O)CC[C@]4(C)C3CC[C@@]21C` (some centres undefined), the GI50 with DU-145 prostate is 44.4 µM; in the assay on MDA-MB-231 breast, 58.7 µM; with MCF7 breast it was 30.2 µM. The TGI in the assay on DU-145 prostate, in the assay with MDA-MB-231 breast and in the assay with MCF7 breast was greater than 100 µM throughout.

`C[C@@H]1C[C@H]2CC[C@H](O2)[C@H](C)C(=O)O[C@@H](C)C[C@@H]2CC[C@@H](O2)[C@@H](C)C(=O)O[C@H](C)C[C@H]2CC[C@H](O2)[C@H](C)C(=O)O[C@@H](C)C[C@@H]2CC[C@@H](O2)[C@@H](C)C(=O)O1`: the results for the TGI in the assay with DU-145 prostate, in the assay on HS 578T breast and with MCF7 breast were greater than 100 µM, 54.3 µM and greater than 100 µM, respectively.
